Source: patent publication US8431593B2, “Heteroaryl amide derivatives” (H. Lundbeck A/S, priority 2006, dated 2013)

biological target: T1, P2X7 receptor (Homo sapiens, UniProt Q99572); assay: P2X7 calcium mobilization assay, high throughput, antagonist activity (Example 4A); format: cell-based; conditions: 50% decrease in the fluorescence response of cells exposed to 80 μM of 2′(3′)-O-(4-benzoyl-benzoyl)adenosine 5′-triphosphate; determined as in Example 4A; read-out: IC50
T1 construct: host or cells: SH-SY5Y
T1 sequence (Q99572 1-595): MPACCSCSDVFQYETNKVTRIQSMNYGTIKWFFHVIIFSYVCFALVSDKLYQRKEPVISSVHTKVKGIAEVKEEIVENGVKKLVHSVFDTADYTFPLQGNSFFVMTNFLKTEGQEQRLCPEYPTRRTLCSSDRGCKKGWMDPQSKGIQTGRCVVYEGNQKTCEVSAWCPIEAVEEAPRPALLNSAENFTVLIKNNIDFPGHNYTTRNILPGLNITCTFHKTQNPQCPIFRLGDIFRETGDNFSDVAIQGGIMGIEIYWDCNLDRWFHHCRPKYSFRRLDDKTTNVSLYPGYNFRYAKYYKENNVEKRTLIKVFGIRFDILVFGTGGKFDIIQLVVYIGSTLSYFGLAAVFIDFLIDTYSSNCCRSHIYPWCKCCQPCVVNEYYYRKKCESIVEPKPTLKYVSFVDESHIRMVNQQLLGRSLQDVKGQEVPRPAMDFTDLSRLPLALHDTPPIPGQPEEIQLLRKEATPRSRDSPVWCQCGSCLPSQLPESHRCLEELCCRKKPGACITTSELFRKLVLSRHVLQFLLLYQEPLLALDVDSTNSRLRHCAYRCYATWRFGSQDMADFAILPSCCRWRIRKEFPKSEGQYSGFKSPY
Procedure, shortened: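 Antagonism was measured as calcium fluorescence (FLIPR Tetra) in cells seeded one day earlier at 100,000/well, loaded with dye for 1 h and exposed to compound for 1 h at room temperature before agonist. Peak RFU, minus the no-agonist background, was referenced to the mean of the agonist wells.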

Compound | IC50 [nM]
CN(C)C1CCCN(C(=O)Cc2cn3c(C(=O)NCC4(c5ccc(C(F)(F)F)cc5)CCCCC4)cccc3n2)C1 (stereo not drawn) [Compound 892, 2-{2-[3-(dimethylamino)piperidin-1-yl]-2-oxoethyl}-N-({1-[4-(trifluoromethyl)phenyl]cyclohexyl}methyl) imidazo[1,2-a] pyridine-5-carboxamide] | < 2000
CN(C)C1CCCN(C(=O)Cc2cn3c(C(=O)NCC4(c5cccnc5)CCCCC4)cccc3n2)C1 (stereo not drawn) [Compound 893, 2-{2-[3-(dimethylamino)piperidin-1-yl]-2-oxoethyl}-N-[(1-pyridin-3-ylcyclohexyl)methyl] imidazo[1,2-a] pyridine-5-carboxamide] | < 2000
CN(C)C1CCCN(C(=O)Cc2cn3c(C(=O)NCC4(c5ccc(Cl)cc5)CCCCC4)cccc3n2)C1 (stereo not drawn) [Compound 894, N-{[1-(4-chlorophenyl)cyclohexyl]methyl}-2-{2-[3-(dimethylamino)piperidin-1-yl]-2-oxoethyl} imidazo[1,2-a] pyridine-5-carboxamide] | < 2000
COC1CCN(C(=O)Cc2cn3c(C(=O)NCC4(c5ccc(C(F)(F)F)cc5)CCCCC4)cccc3n2)CC1 [Compound 896, 2-[2-(4-methoxypiperidin-1 yl)-2-oxoethyl]-N-({1-[4-(trifluoromethyl)phenyl]cyclohexyl}methyl) imidazo[1,2-a] pyridine-5-carboxamide] | < 2000
COC1CCN(C(=O)Cc2cn3c(C(=O)NCC4(c5cccnc5)CCCCC4)cccc3n2)CC1 [Compound 897, 2-[2-(4-methoxypiperidin-1-yl)-2-oxoethyl]-N-[(1-pyridin-3-ylcyclohexyl)methyl] imidazo[1,2-a] pyridine-5-carboxamide] | < 2000
COC1CCN(C(=O)Cc2cn3c(C(=O)NCC4(c5ccc(Cl)cc5)CCCCC4)cccc3n2)CC1 [Compound 898, N-{[1-(4-chlorophenyl)cyclohexyl]methyl}-2-[2-(4-methoxypiperidin-1-yl)-2-oxoethyl] imidazo[1,2-a] pyridine-5-carboxamide] | < 2000
CN(C)C1CCCN(C(=O)Cc2cn3c(C(=O)NCC4(c5ccc(Cl)cc5)CCOCC4)cccc3n2)C1 (stereo not drawn) [Compound 899, N-{[4-(4-chlorophenyl)tetrahydro-2H-pyran-4-yl]methyl}-2-{2-[3-(dimethylamino)piperidin-1-yl]-2-oxoethyl} imidazo[1,2-a] pyridine-5-carboxamide] | < 2000
O=C(O)CCc1cn2c(C(=O)NCC3(c4ccc(Cl)cc4)CCCCC3)cccc2n1 [Compound 900, 3-[5-({[1-(4-chlorophenyl)cyclohexyl]methyl}carbamoyl)imidazo[1,2-a]pyridin-2-yl] propanoic acid] | < 2000
O=C(O)Cc1nnnn1Cc1cn2c(C(=O)NCC34CC5CC(CC(C5)C3)C4)cccc2n1 [Compound 904, [1-({5-[(adamantan-1-ylmethyl)carbamoyl]imidazo[1,2-a]pyridin-2-yl}methyl)-1H-tetrazol-5-yl]acetic acid] | < 2000
CCOC(=O)C(CCC(C)C)c1cn2c(C(=O)NCC34CC5CC(CC(C5)C3)C4)cccc2n1 (stereo not drawn) [Compound 907, ethyl 2-{5-[(adamantan-1-ylmethyl)carbamoyl]imidazo[1,2-a]pyridin-2-yl}-5-methylhexanoate] | < 2000
O=C(Cc1cn2c(C(=O)NCC34CC5CC(CC(C5)C3)C4)cccc2n1)N[C@H]1CCNC1 [Compound 911, N-(adamantan-1-ylmethyl)-2-{2-oxo-2-[(3S)-pyrrolidin-3-ylamino]ethyl} imidazo [1,2-a]pyridine-5-carboxamide] | < 2000
CC(C)CCC(C(=O)O)c1cn2c(C(=O)NCC34CC5CC(CC(C5)C3)C4)cccc2n1 (stereo not drawn) [Compound 912, 2-{5-[(adamantan-1-ylmethyl)carbamoyl]imidazo[1,2-a]pyridin-2-yl}-5-methylhexanoic acid] | < 2000

Next, values leading:

IC50 [nM] | Compound
< 2000 | O=C(NCC1(c2ccc(C(F)(F)F)cc2)CCCCC1)c1cccc2nc(CC(=O)N3CCSCC3)cn12 [Compound 889, 2-(2-oxo-2-thiomorpholin-4-ylethy)-N-({1-[4-(trifluoromethyl)phenyl]cyclohexyl}methyl) imidazo[1,2-a] pyridine-5-carboxamide]
< 2000 | O=C(NCC1(c2cccnc2)CCCCC1)c1cccc2nc(CC(=O)N3CCSCC3)cn12 [Compound 890, 2-(2-oxo-2-thiomorpholin-4-ylethyl)-N-[(1-pyridin-3-ylcyclohexyl)methyl] imidazo[1,2-a] pyridine-5-carboxamide]
< 2000 | O=C(NCC1(c2ccc(Cl)cc2)CCCCC1)c1cccc2nc(CC(=O)N3CCSCC3)cn12 [Compound 891, N-{[1-(4-chlorophenyl)cyclohexyl]methyl}-2-(2-oxo-2-thiomorpholin-4-ylethyl)imidazo [1,2-a]pyridine-5-carboxamide]
< 2000 | CCOC(=O)Cc1nnn(Cc2cn3c(C(=O)NCC45CC6CC(CC(C6)C4)C5)cccc3n2)n1 [Compound 901, ethyl [2-({5-[(adamantan-1-ylmethyl)carbamoyl]imidazo[1,2-a]pyridin-2-yl}methyl)-2H-tetrazol-5-yl]acetate]
< 2000 | CCOC(=O)Cc1nnnn1Cc1cn2c(C(=O)NCC34CC5CC(CC(C5)C3)C4)cccc2n1 [Compound 902, ethyl [1-({5-[(adamantan-1-ylmethyl)carbamoyl]imidazo[1,2-a]pyridin-2-yl}methyl)-1H-tetrazol-5-yl]acetate]
< 2000 | O=C(O)Cc1nnn(Cc2cn3c(C(=O)NCC45CC6CC(CC(C6)C4)C5)cccc3n2)n1 [Compound 903, [2-({5-[(adamantan-1-ylmethyl)carbamoyl]imidazo[1,2-a]pyridin-2-yl}methyl)-2H-tetrazol-5-yl]acetic acid]
< 2000 | CCCC(C(=O)OCC)c1cn2c(C(=O)NCC34CC5CC(CC(C5)C3)C4)cccc2n1 (stereo not drawn) [Compound 905, ethyl 2-{5-[(adamantan-1-ylmethyl)carbamoyl]imidazo[1,2-a]pyridin-2-yl}pentanoate]
< 2000 | CCCCC(C(=O)OCC)c1cn2c(C(=O)NCC34CC5CC(CC(C5)C3)C4)cccc2n1 (stereo not drawn) [Compound 906, ethyl 2-{5-[(adamantan-1-ylmethyl)carbamoyl]imidazo[1,2-a]pyridin-2-yl} hexanoate]
< 2000 | CCCCC(C(=O)O)c1cn2c(C(=O)NCC34CC5CC(CC(C5)C3)C4)cccc2n1 (stereo not drawn) [Compound 908, 2-{5-[(adamantan-1-ylmethyl)carbamoyl]imidazo[1,2-a]pyridin-2-yl} hexanoic acid]
< 2000 | CCCC(C(=O)O)c1cn2c(C(=O)NCC34CC5CC(CC(C5)C3)C4)cccc2n1 (stereo not drawn) [Compound 909, 2-{5-[(adamantan-1-ylmethyl)carbamoyl]imidazo[1,2-a]pyridin-2-yl}pentanoic acid]
< 2000 | N[C@@H]1CCN(Cc2cn3c(C(=O)NCC4(c5ccc(Cl)cc5)CCOCC4)cccc3n2)C1 [Compound 910, 2-{[(3R)-3-aminopyrrolidin-1-yl]methyl}-N-{[4-(4-chlorophenyl)tetrahydro-2H-pyran-4-yl]methyl} imidazo[1,2-a] pyridine-5-carboxamide]
< 2000 | CCOC(=O)Cc1cn2c(C(=O)NCC(CC(C)C)c3ccc(Cl)cc3)cccc2n1 (stereo not drawn) [Compound 913, ethyl (5-{[2-(4-chlorophenyl)-4-methylpentyl]carbamoyl}imidazo[1,2-a]pyridin-2-yl) acetate]
< 2000 | CCOC(=O)Cc1cn2c(C(=O)NCC3(c4ccc(Cl)cc4)CCCCC3)cccc2n1 [Compound 914, ethyl [5-({[1-(4-chlorophenyl)cyclohexyl]methyl}carbamoyl)imidazo[1,2-a]pyridin-2-yl] acetate]
< 2000 | O=C(NCC1(c2ccc(Cl)cc2)CCCCC1)c1cccc2nc(CSc3nnn[nH]3)cn12 [Compound 915, N-{[1-(4-chlorophenyl)cyclohexyl]methyl}-2-[(1H-tetrazol-5-ylthio)methyl] imidazo [1,2-a]pyridine-5-carboxamide]
< 2000 | CC(C)CC(CNC(=O)c1cccc2nc(CN3CCC[C@@H](N)C3)cn12)c1ccc(Cl)cc1 (stereo partly drawn) [Compound 916, 2-{[(3R)-3-aminopiperidin-1-yl]methyl}-N-[2-(4-chlorophenyl)-4-methylpentyl] imidazo [1,2-a]pyridine-5-carboxamide]
< 2000 | Cc1ccc(C(CNC(=O)c2cccc3nc(Cn4nnc(CCO)n4)cn23)CC(C)C)cc1 (stereo not drawn) [Compound 917, 2-{[5-(2-hydroxyethyl)-2H-tetrazol-2-yl]methyl}-N-[4-methyl-2-(4-methylphenyl)pentyl] imidazo [1,2-a]pyridine-5-carboxamide]
< 2000 | CC(C)CC(CNC(=O)c1cccc2nc(Cn3nnc(CCO)n3)cn12)c1ccc(Cl)cc1 (stereo not drawn) [Compound 918, N-[2-(4-chlorophenyl)-4-methylpentyl]-2-{[5-(2-hydroxyethyl)-2H-tetrazol-2-yl]methyl}imidazo[1,2-a]pyridine-5-carboxamide]
< 2000 | O=C(NCC1(c2ccc(Cl)cc2)CCCCC1)c1cccc2nc(Cn3nnc(CCO)n3)cn12 [Compound 919, N-{[1-(4-chlorophenyl)cyclohexyl]methyl}-2-{[5-(2-hydroxyethyl)-2H-tetrazol-2-yl]methyl}imidazo[1,2-a]pyridine-5-carboxamide]
